This passage reports kinact/KI results from US5952321A, “Substituted azetidinones as anti-inflammatory and antidegenerative agents” (Merck & Co., Inc., priority 1996, dated 1999).

Test [1] deals with T1, Human Polymorphonuclear Leukocyte Elastase (Homo sapiens, UniProt P08246).
T1 sequence (P08246 30-267): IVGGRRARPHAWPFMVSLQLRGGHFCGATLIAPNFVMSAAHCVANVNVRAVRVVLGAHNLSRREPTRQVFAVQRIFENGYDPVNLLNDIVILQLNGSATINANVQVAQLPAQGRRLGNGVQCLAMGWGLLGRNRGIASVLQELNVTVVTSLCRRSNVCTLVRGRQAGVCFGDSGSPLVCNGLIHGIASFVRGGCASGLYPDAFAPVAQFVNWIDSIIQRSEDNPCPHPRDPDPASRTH
The experiment in a line: Inhibition of human polymorphonuclear leukocyte elastase via hydrolysis of Boc-AAPAN or Boc-AAPVN. In kind it is biochemical. Particulars: second order rate constant for inactivation of the enzyme, read-out: Kobs /[I]. The essentials:
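Crude human PMN extract was added to 0.2 mM Boc-AAPAN or Boc-AAPVN substrate solution in 0.05 M TES pH 7.5 containing inhibitor in DMSO; extract volume was adjusted per batch activity. Hydrolysis was followed as ΔOD/min at 410 mμ, after a pre-check for spontaneous hydrolysis. Values are ID50 (μg/ml, 50% inhibition at 2 min), Ki (μM) or kobs/I.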

Another test concerns the target T2, HUMAN PROTEINASE 3 (Homo sapiens, UniProt P24158).
T2 sequence (P24158 28-256): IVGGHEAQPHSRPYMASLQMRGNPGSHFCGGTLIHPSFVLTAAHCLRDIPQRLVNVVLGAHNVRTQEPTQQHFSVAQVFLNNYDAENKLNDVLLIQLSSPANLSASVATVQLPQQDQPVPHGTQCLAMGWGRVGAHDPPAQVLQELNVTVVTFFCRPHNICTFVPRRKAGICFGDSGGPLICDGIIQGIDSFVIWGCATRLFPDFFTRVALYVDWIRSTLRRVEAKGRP
Description: Inhibition of PR3 catalyzed hydrolysis of MeO-Succ-AAPV-pNA. It counts as biochemical. Particulars: Table IV; 45 mM TES pH 7.5, 450 mM NaCl, 10% DMSO; 0.2 mM MeO-succ-AAPV-pNA; read-out: SORC (second order rate constant, kobs /I). The method, then:
The PR3 catalyzed hydrolysis of MeO-Succ-AAPV-pNA was measured in a spectrophotometer monitoring absorbance at 410 nm. The enzymatic activity was determined in 45 mM TES at pH 7.5, 450 mM NaCl and 10% DMSO. The data were fit by non-linear regression to equation 1 to obtain the initial rates. The nonlinear progress curves observed with time dependent inhibitors were fit to equation 2 to obtain the first order rate constant Kobs. Results were expressed as kobs /I which is the second order rate constant (SORC) in per mole per second for inactivation of the enzyme.
Y=vs *x+[(vo -vs) (1-e^(-K.spsb.o^*x))/Ko
Kinetic constants for the inhibition of PR3 catalyzed hydrolysis of 0.2 mM MeO-succ-AAPV-pNA were determined by varying the concentration of inhibitor present in the reaction vessel.

Where two headings read alike, the source gives them in different places.

For the molecule `CCC[C@@H](NC(=O)N1C(=O)C(CC)(CC)[C@@H]1Oc1ccc(C(C)N(C)CCOC)cc1)c1ccc2c(c1)OCO2` (some centres unmarked), the kinact/KI in test [1] (pH 7.5, Table III) came out at 1.3e+06 M⁻¹ s⁻¹; on HUMAN PROTEINASE 3, 31000 M⁻¹ s⁻¹.

As to `CCC[C@@H](NC(=O)N1C(=O)C(CC)(CC)[C@@H]1Oc1ccc(CN(C)CCO)cc1)c1ccc(C)cc1` [R4=Me; R5=CH2 CH2 OH; R6=H], in test [1] (pH 7.5, Table I), the kinact/KI stood at 560000 M⁻¹ s⁻¹.

Consider `CCC[C@@H](NC(=O)N1C(=O)C(CC)(CC)[C@@H]1Oc1ccc(CN2CCSCC2)cc1)c1ccc(C)cc1` [R4+R5=--CH2 CH2 SCH2 CH2 --; R6=H], for which the kinact/KI in test [1] (pH 7.5, Table I) turned out to be 915000 M⁻¹ s⁻¹.

`CCC[C@@H](NC(=O)N1C(=O)C(CC)(CC)[C@@H]1Oc1ccc(CN(C)CC2CCCCO2)cc1)c1ccc(C)cc1` (some centres unmarked): in test [1] (pH 7.5, Table I), the kinact/KI is 900000 M⁻¹ s⁻¹.

With `CCC[C@@H](NC(=O)N1C(=O)C(CC)(CC)[C@@H]1Oc1ccc(C(COC)N(C)CC)cc1)c1ccc2c(c1)OCO2` (mixture of isomers) [3,3-Diethyl-1-[(R)-α-(n-propyl)-(3,4-dioxomethylene)benzylaminocarbonyl]-4-(S)-[4-{1-(RS)-(N-ethyl-N-(methyl)amino)-2-methoxyethyl}phenoxy]azetidin-2-one], the kinact/KI in test [1] (pH 7.5, Table III) was found to be 1.65e+06 M⁻¹ s⁻¹.

As to `CCC[C@@H](NC(=O)N1C(=O)C(CC)(CC)[C@@H]1Oc1ccc(CCN(C)Cc2ccccc2)cc1)c1ccc(C)cc1` [R4=Me; R5=Bn; n=2, (4S)-3,3-Diethyl-1-[(R)-α-n-propyl-(4-methyl)benzylaminocarbonyl]-4-[(4-(2-benzylmethylamino)ethyl)phenoxy]azetidin-2-one], the kinact/KI in test [1] (pH 7.5, Table II) is 1.32e+06 M⁻¹ s⁻¹.

As to `CCC[C@@H](NC(=O)N1C(=O)C(CC)(CC)[C@@H]1Oc1cc(C)c(CN(C)CCOC)c(C)c1)c1ccc(C)cc1`, the kinact/KI in test [1] (pH 7.5, Table III) came to 300000 M⁻¹ s⁻¹.

As for `CCC[C@@H](NC(=O)N1C(=O)C(CC)(CC)[C@@H]1Oc1ccc(CN(C)CCN(C)Cc2ccccc2)cc1)c1ccc(C)cc1` [R4=Me; R5=CH2 CH2 N(Me)Bn; R6=H], the kinact/KI in test [1] (pH 7.5, Table I) is 1.25e+06 M⁻¹ s⁻¹.

Regarding `CCC[C@@H](NC(=O)N1C(=O)C(CC)(CC)[C@@H]1Oc1ccc(C(COC)N(C)CCC)cc1)c1ccc2c(c1)OCO2` (mixture of isomers) [3,3-Diethyl-1-[(R)-α-(n-propyl)-(3,4-dioxomethylene)benzylaminocarbonyl]-4-(S)-[4-{1-(RS)-(N-(n-propyl)-N-(methyl)amino)-2-methoxyethyl}phenoxy]azetidin-2-one], the kinact/KI in test [1] (pH 7.5, Table III) came out at 1.8e+06 M⁻¹ s⁻¹.

Take `CCC[C@@H](NC(=O)N1C(=O)C(CC)(CC)[C@@H]1Oc1ccc(C(C)NCCO)cc1)c1ccc(C)cc1` (some centres unmarked) [R4=H; R5=CH2 CH2 OH; R6=Me]: the kinact/KI in test [1] (pH 7.5, Table I) was determined as 660000 M⁻¹ s⁻¹.

For the molecule `CCC[C@@H](NC(=O)N1C(=O)C(CC)(CC)[C@@H]1Oc1ccc(CNC(=O)NCc2ccccc2)cc1)c1ccc(C)cc1` [R4=H; R5=CONH Bn; R6=H, (4S)-3,3-Diethyl-1-[(R)-α-(n-propyl)-4-(methyl)benzylaminocarbonyl]-4-[(4-((N-benzyl)aminocarbonyl)aminomethyl)phenoxy]azetidin-2-one], the kinact/KI in test [1] (pH 7.5, Table I) turned out to be 1.6e+06 M⁻¹ s⁻¹.

With `CCC[C@@H](NC(=O)N1C(=O)C(CC)(CC)[C@@H]1Oc1ccc(CN2CCC(O)C2)cc1)c1ccc(C)cc1` (some centres unmarked) [R4+R5=--CH2 CH2 CH(OH)CH2 --; R6=H], in test [1] (pH 7.5, Table I), the kinact/KI was determined as 1.2e+06 M⁻¹ s⁻¹.

Take `CCC[C@@H](NC(=O)N1C(=O)C(CC)(CC)[C@@H]1Oc1ccc(CN(CC)CCOC)cc1)c1ccc(C)cc1` [R4=Et; R5=CH2 CH2 OMe; R6=H, (4S)-3,3-Diethyl-1-[(R)-α-n-propyl-(4-methyl)benzyl-aminocarbonyl]-4-[(4-(2-methoxyethyl)ethylamino-methyl)phenoxy]azetidin-2-one]: the kinact/KI in test [1] (pH 7.5, Table I) stood at 565000 M⁻¹ s⁻¹.

Consider `CCC[C@@H](NC(=O)N1C(=O)C(CC)(CC)[C@@H]1Oc1ccc(CN(CC)CCNC(C)=O)cc1)c1ccc(C)cc1` [R4=Et; R5=CH2 CH2 NHAc; R6=H], for which the kinact/KI in test [1] (pH 7.5, Table I) was 850000 M⁻¹ s⁻¹.

In the case of `CCC[C@@H](NC(=O)N1C(=O)C(CC)(CC)[C@@H]1Oc1ccc(CN(C)CCCOC)cc1)c1ccc(C)cc1` [R4=Me; R5=CH2 CH2 CH2 OMe; R6=H], the kinact/KI in test [1] (pH 7.5, Table I) amounted to 1.5e+06 M⁻¹ s⁻¹.

`CCC[C@@H](NC(=O)N1C(=O)C(CC)(CC)[C@@H]1Oc1ccc(CN(CC)CCOC(=O)N(C)C)cc1)c1ccc(C)cc1` [R4=Et; R5=CH2 CH2 OCONMe2; R6=H]: in test [1] (pH 7.5, Table I), the kinact/KI turned out to be 1.4e+06 M⁻¹ s⁻¹.
